Experimental data as given in PMC8002323 (Molecules, 2021).
Values joined by “and” are separate entries in the source; they are usually repeats but may differ in a detail not shown here. Equal entries are not always repeated.

Key:
[1] = target: T1, AChE (type VI-S, from electric eel) (Electrophorus electricus, UniProt O42275); assay: biochemical; assay type: biochemical; conditions: for IC50: AChE from Electric eel, mean of two independent experiments ± SD, read-out: AChE Inhib. IC50 ± SD; for AChE inhibition (in words): AChE from electric eel
T1 construct: purchased
T1 sequence (O42275 24-633): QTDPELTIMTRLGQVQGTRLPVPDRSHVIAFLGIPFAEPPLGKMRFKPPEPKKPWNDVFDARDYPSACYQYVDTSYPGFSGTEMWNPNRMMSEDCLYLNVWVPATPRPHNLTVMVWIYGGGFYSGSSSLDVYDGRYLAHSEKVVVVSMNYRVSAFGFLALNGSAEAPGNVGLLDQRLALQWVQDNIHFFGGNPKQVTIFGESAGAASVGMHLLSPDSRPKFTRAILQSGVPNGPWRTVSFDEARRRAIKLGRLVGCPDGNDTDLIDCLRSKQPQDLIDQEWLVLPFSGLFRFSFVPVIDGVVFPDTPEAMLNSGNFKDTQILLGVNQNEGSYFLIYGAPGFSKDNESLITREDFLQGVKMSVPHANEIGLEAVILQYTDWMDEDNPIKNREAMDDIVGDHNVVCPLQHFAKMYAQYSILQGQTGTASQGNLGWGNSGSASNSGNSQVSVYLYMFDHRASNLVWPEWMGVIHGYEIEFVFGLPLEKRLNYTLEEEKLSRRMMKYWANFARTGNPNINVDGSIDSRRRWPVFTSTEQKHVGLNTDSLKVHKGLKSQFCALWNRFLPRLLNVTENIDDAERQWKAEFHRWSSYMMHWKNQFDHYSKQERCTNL
Method: The acetylcholinesterase inhibitory activity was assessed by an adaptation of the Ellman’s method. The assay solution contained 4-(2-hydroxyethyl)-1-piperazineethanesulfonic acid (HEPES) buffer (50 mM, pH 8.0), 5,5′-dithiobis-(2-nitrobenzoic acid) (DTNB, 3 mM), the stock solution of each compound in methanol (1 mg/mL), AChE (type VI-S, from electric eel) and the required quantity of methanol to reach the desired volume of sample mixture in a 1 mL cuvette. Samples were incubated for 15 min and then 75 μL of acetylthiocholine iodide (AThChI) solution (16 mM) was added. The reaction was monitored for 5 min at 405 nm. Assays were run with a blank containing all the reagents but AChE. Reaction rates were calculated as well as the enzyme activity. A positive control reaction was performed using methanol as a sample solution. The fraction of enzyme inhibition due to the existence of rising concentration of the test compound was calculated using Equation (1), where vi = starting reaction rate in the presence of inhibitor; vo = starting reaction rate of the control reaction. (1) %I =100−100 × […]
The inhibition curves were achieved by plotting the percentage of enzymatic inhibition against inhibitor concentration and a calibration curve was got from which the linear regression parameters were obtained.

[2] = target: T2, Aβ1–42 (Homo sapiens, UniProt P05067); assay: Inhibition of self-induced Aβ1–42 aggregation (thioflavin-T fluorescence method); conditions: read-out: Aβ1–42 Aggreg. Inhib.
T2 sequence (P05067 672-713 limits assumed): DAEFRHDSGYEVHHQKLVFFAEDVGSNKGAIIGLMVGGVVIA
Method: Inhibitory capacity of the compounds for the Aβ1–42 aggregation was assessed based on the fluorescence properties of thioflavine T (ThT), measured with a Varian Cary Eclipse spectrofluorometer.
A previously prepared solution of Aβ1–42 was used.
To the resulting alkaline Aβ1–42 solution was added phosphate buffer (pH 8.0). The compounds tested were diluted in MeOH (1 mg/mL) and then further diluted in phosphate buffer. Two different types of experiments were prepared in a final volume of 60 μL. The solution for the control ligand assay consists in 30 µL of phosphate buffer and 30 µL of Aβ1–42 solution, to evaluate the aggregation without any inhibition, while the solution for the ligand assay consists of 20 µL of phosphate buffer, 30 µL of Aβ1–42 solution and 10 µL of the ligand solution, to evaluate the effect of the ligand in the aggregation. For each experiment a blank sample, without Aβ1–42, is used to monitor the effect of the compounds in the fluorescence. These samples were left incubating in a water bath (CERTOMAT WR), for 24 h, at 37 °C with gentle shaking [14].
A glycine-NaOH buffer (pH 8.5) containing ThT (5 μM) was added to each sample. Samples were placed in a microplate and the fluorescence signal was monitored at 446 nm (λexc) and 490 nm (λem) [40].
(2) %I=100−Fi/F0× 100 where Fi and F0 are the fluorescence intensities in the presence and absence of the compound, respectively, minus the fluorescence intensities of the respective blanks. Statistical analysis was performed in Microsoft Office Excel®.

[3] = tested on: SH-SY5Y human neuroblastoma cells; assay: Dose-response screening of cell viability (MTT reduction assay); assay type: cell-based; conditions: SH-SY5Y cells treated 25 h, 2.5–50 μM
Method: (§1) SH-SY5Y human neuroblastoma cells (ATCC-CRL-2266) (American Type Culture Collection, Manassas, Virgínia, USA) were plated in DMEM/F12 (Dulbecco’s Modified Eagle Medium/Ham’s F-12 Nutrient Mixture; Thermo Fisher Scientific) with 10% heat inactivated fetal bovine serum, 50 U/mL penicillin and 50 U/mL streptomycin under a humidified atmosphere with 95% relative humidity at 37 °C at a 0.16 × 10^6 cells/mL density. Each of the tested substances (6, 7, 8, 9) were dissolved in DMSO to prepare a stock solution at a 25 mM concentration and stored at −20 °C until further use. SH-SY5Y cells were treated for 25 h with varying concentrations of compounds, in order to select the highest non-toxic concentration. The selected concentrations for each compound were: 40 µM final concentration for 6; 15 µM final concentration for 7; 30 µM final concentration for 8 and 2.5 µM final concentration for 9. […] For the neuroprotection assays, the incubation with Aβ1–42 or L-ascorbic acid/ferrous sulphate treatment was preceded with 1 h incubation of the compounds when needed. Pre-incubation was followed by 24 h treatment of Aβ1–42 or Fe/Asc, accounting a total of 25 h. Aβ1–42 was prepared as 276.9 µM stock in sterile water and administrated in the medium at a 2.5 µM final concentration. Ferrous sulphate was freshly prepared as 0.36 M stock in water and added to the medium at 2.5 mM final concentration. L-ascorbic acid was freshly prepared as 80 mM stock in water and added to the medium at 5 mM final concentration. Aβ1–42 was purchased from Bachem (Torrance, CA, USA) and ferrous sulphate and L-ascorbic acid from Sigma Chemical Co. (St. Louis, MO, USA).
Cellular viability was determined by employing the MTT (3-(4,5-dimethylthiazol-2-yl)-2,5-diphenyltetrazolium bromide) reduction assay, according to the Mosmann method. This colorimetric test consists in the ability of the succinate dehydrogenase enzyme from viable cells to metabolize the MTT into a formazan. In the end of treatments, cells medium was aspirated and cells were washed with 1 × PBS (phosphate-buffered saline) to remove dead cells. MTT solution (200 µL, 0.5 mg/mL) was added to each well and incubated for 2 h protected from light. Formazan precipitates were then dissolved in DMSO and absorbance measured at 570 nm. The ability to reduce MTT was expressed as a percentage of untreated, control cells.

[4] = tested on: SH-SY5Y cells; assay: Neuroprotective effect on Aβ42-induced toxicity (MTT reduction assay); assay type: cell-based, human; conditions: Aβ42 2.5 μM 24 h, 1 h pre-incubation; 7 (15 µM), 8 (30 µM), 9 (2.5 µM)
Method: as §1
Cellular viability was determined by employing the MTT (3-(4,5-dimethylthiazol-2-yl)-2,5-diphenyltetrazolium bromide) reduction assay, according to the Mosmann method. […] Formazan precipitates were then dissolved in DMSO and absorbance measured at 570 nm. The ability to reduce MTT was expressed as a percentage of untreated, control cells.

[5] = target: T2, Aβ1–42; conditions: self-induced aggregation, literature value for DNP; ref [3],[27]; cited from earlier work

| Structure (SMILES) | IC50 [1] | AChE inhibition (in words) [1] | inhibition at 40 µM [2] | highest non-toxic concentration (selected concentration) [3] | reversal of neurotoxicity induced by Aβ peptides (in words) [4] | Aβ1–42 Aggreg. Inhib. [5] |
| --- | --- | --- | --- | --- | --- | --- |
| Cc1ccc(S(=O)(=O)NCCN2CCN(Cc3ccccc3)CC2)cc1 [Compound 5, N-(2-(4-benzylpiperazin-1-yl)ethyl)-4-methylbenzenesulfonamide] | ≥ 100 µM | do not show significant inhibition | 41.8% | – | – | – |
| COc1ccc(S(=O)(=O)NCCN2CCN(Cc3ccccc3)CC2)cc1 [Compound 6, N-(2-(4-benzylpiperazin-1-yl)ethyl)-4-methoxybenzenesulfonamide] | 89 ± 9 µM | do not show significant inhibition | 37.2% | 40 µM | – | – |
| O=S(=O)(NCCN1CCN(Cc2ccccc2)CC1)c1ccc(-c2ccccc2)cc1 [Compound 7, N-(2-(4-benzylpiperazin-1yl)ethyl)-[1,1’-biphenyl]-4-sulfonamide] | 38.7 ± 0.2 µM | – | 34.6% | 15 µM | able to relapse the neurotoxicity induced by Aβ peptides | – |
| COc1ccc(S(=O)(=O)NCC2CCN(Cc3ccccc3)CC2)cc1 [Compound 8, N-((1-benzylpiperidin-4-yl)methyl)-4-methoxybenzenesulfonamide] | 1.6 to 6.2 µM and 6.2 µM | – | 64.2% | 30 µM | more modest results in reverting neurotoxicity | – |
| O=S(=O)(NCC1CCN(Cc2ccccc2)CC1)c1ccc(-c2ccccc2)cc1 [Compound 9, N-((1-benzylpiperidin-4-yl)methyl)-[1,1’-biphenyl]-4-sulfonamide] | 1.6 to 6.2 µM and 1.6 µM | – | 60.7% | 2.5 µM | more modest results in reverting neurotoxicity | – |
| COc1cc2c(cc1OC)C(=O)C(CC1CCN(Cc3ccccc3)CC1)C2 (stereo not drawn) [DNP, donepezil] | – | – | – | – | – | <5% |
| Nc1c2c(nc3ccccc13)CCCC2 [Tacrine, tacrine, reference compound] | – | – | 54.5% | – | – | – |
